# Data as given in patent publication US9795608B2, “Protein kinase inhibitors” (PHARMASCIENCE, INC., priority 2012, dated 2017).
# Assays:
# Splenocytes = experiment: Splenic Cell Proliferation Assay (anti-IgM stimulated B cell proliferation, Cell Titer-Glo); type: cell-based; conditions: Splenocyte; CD1 mouse splenocytes, 2.5 ug/ml anti-IgM F(ab')2, 72 h; read-out: EC50 (nM), Inhibition of splenic cell proliferation
# Experimental: Splenic Cell Proliferation Assay
# Splenocytes were obtained from 6 week old male CD1 mice (Charles River Laboratories Inc.). Mouse spleens were manually disrupted in PBS and filtered using a 70 um cell strainer followed by ammonium chloride red blood cell lysis. Cells were washed, resuspended in Splenocyte Medium (HyClone RPMI supplemented with 10% heat-inactivated FBS, 0.5× non-essential amino acids, 10 mM HEPES, 50 uM beta mercaptoethanol) and incubated at 37° C., 5% CO2 for 2 h to remove adherent cells. Suspension cells were seeded in 96 well plates at 50,000 cells per well and incubated at 37° C., 5% CO2 for 1 h. Splenocytes were pre-treated in triplicate with 10,000 nM curves of Formula 1 compounds for 1 h, followed by stimulation of B cell proliferation with 2.5 ug/ml anti-IgM F(ab′)2 (Jackson ImmunoResearch) for 72 h. Cell proliferation was measured by Cell Titer-Glo Luminescent Assay (Promega). EC50 values (50% proliferation in the presence of compound as compared to vehicle treated controls) were calculated from dose response compound curves using GraphPad Prism Software.
# [1] = molecular target: histidine tagged recombinant human full-length Bruton Agammaglobulinemia Tyrosine Kinase (Btk) (Homo sapiens (Human), UniProt Q06187); experiment: Btk Kinase Inhibition Assay (fluorescence polarization, KinEASE FP Fluorescein Green); type: biochemical; conditions: 10 μM ATP, 250 μM substrate, 60 minutes room temperature; Ki from IC50 by Cheng-Prusoff
# histidine tagged recombinant human full-length Bruton Agammaglobulinemia Tyrosine Kinase (Btk), sequence (Q06187 whole entry): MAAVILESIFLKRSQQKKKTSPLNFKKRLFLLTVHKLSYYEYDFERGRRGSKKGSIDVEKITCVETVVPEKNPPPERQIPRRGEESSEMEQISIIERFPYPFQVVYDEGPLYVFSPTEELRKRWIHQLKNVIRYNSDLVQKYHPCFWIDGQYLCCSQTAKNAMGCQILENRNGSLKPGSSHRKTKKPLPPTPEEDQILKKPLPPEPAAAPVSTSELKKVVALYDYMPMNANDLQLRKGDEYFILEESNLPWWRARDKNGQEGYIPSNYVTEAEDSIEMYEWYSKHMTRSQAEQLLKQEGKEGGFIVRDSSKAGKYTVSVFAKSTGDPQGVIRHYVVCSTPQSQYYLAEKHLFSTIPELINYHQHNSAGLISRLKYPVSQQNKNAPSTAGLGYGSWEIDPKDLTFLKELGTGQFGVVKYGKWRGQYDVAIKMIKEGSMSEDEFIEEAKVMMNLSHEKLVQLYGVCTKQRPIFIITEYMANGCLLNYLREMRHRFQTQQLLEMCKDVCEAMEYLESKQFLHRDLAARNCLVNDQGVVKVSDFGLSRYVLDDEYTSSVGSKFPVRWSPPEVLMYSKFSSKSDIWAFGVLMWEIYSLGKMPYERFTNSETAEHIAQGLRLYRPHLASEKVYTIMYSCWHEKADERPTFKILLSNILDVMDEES
# Experimental: Kinase Binding Btk Kinase Inhibition Assay
# Fluorescence polarization-based kinase assays were performed in 384 well-plate format using histidine tagged recombinant human full-length Bruton Agammaglobulinemia Tyrosine Kinase (Btk) and a modified protocol of the KinEASE™ FP Fluorescein Green Assay supplied from Millipore. Kinase reaction were performed at room temperature for 60 minutes in presence of 250 μM substrate, 10 μM ATP and variable test article concentrations. The reaction was stopped with EDTA/kinease detection reagents and the polarization measured on a Tecan 500 instrument. From the dose-response curve obtained, the IC50 was calculated using Graph Pad Prisms® using a non linear fit curve. The Km for ATP on each enzyme was experimentally determined and the Ki values calculated using the Cheng-Prusoff equation (see: Cheng Y, Prusoff W H. (1973) Relationship between the inhibition constant (K1) and the concentration of inhibitor which causes 50 percent inhibition (I50) of an enzymatic reaction”. Biochem Pharmacol 22 (23): 3099-108).
# Balb/c mice = experiment: Mouse Arthus; type: in vivo; conditions: delivered orally at 30 mg/kg, female Balb/c mice
# Experimental: Mouse Arthus studies were conducted as reported in Braselmann S, Taylor V, Zhao H, Wang S, Sylvain C, Baluom M, Qu K, Herlaar E, Lau A, Young C, Wong B R, Lovell S, Sun T, Park G, Argade A, Jurcevic S, Pine P, Singh R, Grossbard E B, Payan D G, Masuda E S: R406 an orally available spleen tyrosine kinase inhibitor blocks fc receptor signaling and reduces immune-complex mediated inflammation. J Pharmacol Exp Ther, 2006, 319:998-1008.
# In summary, female Balb/c mice (6-7 weeks on arrival) were habituated to the animal facility for at least 4 days. On the day of the experiment, animals were pre-treated (t=minus 1 h) with compound or vehicle alone by gavage (PO). At t=0, animals were injected intravenously (IV; 0.1 mL/mouse) with saline containing chicken ovalbumin and Evan's blue (10 mg/mL of each). Ten minutes later (t=10 min), animals were anesthesized with isoflurane, the dorsal surface was shaved and rabbit anti-chicken ovalbumin antibody was then injected intradermally at one site on the right side of the animal (25 μg in 30 μL). […]
# The animals were then returned to their home cage and skin punches (8 mm) were collected from each injection site four hours later. […] The amount of Evan's blue in the formamide solution was then assessed by spectrophotometry (630 nm) as a measure of serum extravasation into the dermis.
Structure (SMILES),Ki [1] [nM],EC50 (Splenocytes) [nM],efficacy in mouse Arthus (Evan's blue serum extravasation into the dermis) (Balb/c mice)
Nc1ncnc2c(C3CCCC3)nn(-c3ccc(Oc4cccc(OCc5cncs5)c4)cc3)c12 [Compound 1],< 100,< 100,
Cc1ncc(COc2cccc(Oc3ccc(-n4nc(C5CCCC5)c5ncnc(N)c54)cc3)c2)s1 [Compound 2],< 100,< 100,
Cc1ccc(COc2cc(F)cc(Oc3ccc(-n4nc(C5CCCC5)c5ncnc(N)c54)cc3)c2)cn1 [Compound 6],< 100,< 100,
Cc1ncc(COc2cc(F)cc(Oc3ccc(-n4nc(C5CCCC5)c5ncnc(N)c54)cc3)c2)cn1 [Compound 8],< 100,< 100,
Cc1ncc(COc2cc(F)cc(Oc3ccc(-n4nc(C(C)C)c5ncnc(N)c54)cc3)c2)s1 [Compound 9],< 100,< 100,demonstrated efficacy
Cc1ncc(COc2cc(F)cc(Oc3ccc(-n4nc(C(C)C)c5ncnc(N)c54)cc3)c2)cn1 [Compound 10],< 100,< 100,demonstrated efficacy
Cc1ccc(COc2cc(F)cc(Oc3ccc(-n4nc(C(C)C)c5ncnc(N)c54)cc3)c2)cn1 [Compound 11],< 100,< 100,
CC(C)c1nn(-c2ccc(Oc3cc(F)cc(OCc4ccccc4)c3)cc2)c2c(N)ncnc12 [Compound 12],< 100,< 100,

# Now from value to compound, other results behind:
Ki [1] [nM],Structure (SMILES),EC50 (Splenocytes) [nM],efficacy in mouse Arthus (Evan's blue serum extravasation into the dermis) (Balb/c mice)
< 100,Cc1ncc(COc2cc(F)cc(Oc3ccc(-n4nc(C5CCOCC5)c5ncnc(N)c54)cc3)c2)s1 [Compound 3],< 100,
< 100,Cn1cncc1COc1cc(F)cc(Oc2ccc(-n3nc(C4CCOCC4)c4ncnc(N)c43)cc2)c1 [Compound 4],< 100,
< 100,Cc1ncc(COc2cc(F)cc(Oc3ccc(-n4nc(C5CCOCC5)c5ncnc(N)c54)cc3)c2)o1 [Compound 5],< 100,
< 100,Cc1ncc(COc2cc(F)cc(Oc3ccc(-n4nc(C5CCCC5)c5ncnc(N)c54)cc3)c2)s1 [Compound 7],< 100,
< 100,Nc1ncnc2c(C3CCOCC3)nn(-c3ccc(Oc4cc(F)cc(OCc5ccccc5)c4)cc3)c12 [Compound 13],< 100,
< 100,Cc1ccc(COc2cc(F)cc(Oc3ccc(-n4nc(C5CCOCC5)c5ncnc(N)c54)cc3)c2)cn1 [Compound 14],< 100,
< 100,Cc1ncc(COc2cc(F)cc(Oc3ccc(-n4nc(C5CCOCC5)c5ncnc(N)c54)cc3)c2)cn1 [Compound 15],,
